In US20210238170A1, “5,5-Difluoro- and 5-Fluoro-5-Methyl-C-Glycoside Derivatives Useful As Dual SGLT1 / SGLT2 Modulators” (Janssen Pharmaceutica NV, priority 2018, published 2021):
Read-outs that look alike come from different tables or passages of the source.

How the values were obtained:
human SGLT2 = target: T1, human SGLT2 (Homo sapiens, UniProt P31639); test: SGLT2 in vitro assay: Na-dependent 14C-AMG uptake in CHO-K1 cells stably expressing human SGLT2; assay type: cell-based; conditions: for inhibition at 0.3 µM: read-out: SGLT2 % Inh @ 0.3 μM; for IC50: compounds of formula (I) where R0 is fluoro
T1 construct: expressed in transfected cells
T1 sequence (P31639 1-672): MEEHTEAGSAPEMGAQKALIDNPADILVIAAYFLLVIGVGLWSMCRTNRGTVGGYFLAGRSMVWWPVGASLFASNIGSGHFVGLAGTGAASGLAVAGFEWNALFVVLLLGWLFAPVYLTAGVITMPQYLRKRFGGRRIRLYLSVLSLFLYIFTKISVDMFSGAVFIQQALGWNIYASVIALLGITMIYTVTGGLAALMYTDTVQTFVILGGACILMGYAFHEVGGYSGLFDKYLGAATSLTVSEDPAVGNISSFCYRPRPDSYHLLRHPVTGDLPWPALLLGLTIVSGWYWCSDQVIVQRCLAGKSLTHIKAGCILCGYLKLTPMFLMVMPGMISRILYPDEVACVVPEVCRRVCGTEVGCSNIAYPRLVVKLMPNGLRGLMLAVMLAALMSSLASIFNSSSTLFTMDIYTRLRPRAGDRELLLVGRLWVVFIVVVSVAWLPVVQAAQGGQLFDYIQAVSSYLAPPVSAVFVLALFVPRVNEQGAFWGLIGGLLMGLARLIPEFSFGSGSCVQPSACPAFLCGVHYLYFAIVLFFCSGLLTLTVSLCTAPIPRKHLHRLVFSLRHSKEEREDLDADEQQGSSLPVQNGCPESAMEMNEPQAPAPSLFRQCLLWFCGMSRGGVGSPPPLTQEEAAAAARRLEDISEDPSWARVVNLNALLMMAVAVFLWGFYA
How it was run: (§1)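 Sodium-dependent uptake of 14C-α-methyl-glucopyranoside ([…]) over 2 h at 37°C was counted by scintillation in stable human SGLT2- or SGLT1-CHO-K1 lines pretreated with 10 mM Na-butyrate. Compounds at 0.001–10 μM were preincubated for 10 min in pH 7.4 buffer with 137 mM NaCl; output is %-inhibition or IC50.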

human SGLT1 = target: T2, human SGLT1 (Homo sapiens, UniProt P13866); test: SGLT1 in vitro assay: Na-dependent 14C-AMG uptake in CHO-K1 cells stably expressing human SGLT1; assay type: cell-based; conditions: for inhibition at 0.3 µM: read-out: SGLT1 % Inh @ 0.3 μM; for IC50: compounds of formula (I) where R0 is fluoro
T2 construct: expressed in transfected cells
T2 sequence (P13866 1-664): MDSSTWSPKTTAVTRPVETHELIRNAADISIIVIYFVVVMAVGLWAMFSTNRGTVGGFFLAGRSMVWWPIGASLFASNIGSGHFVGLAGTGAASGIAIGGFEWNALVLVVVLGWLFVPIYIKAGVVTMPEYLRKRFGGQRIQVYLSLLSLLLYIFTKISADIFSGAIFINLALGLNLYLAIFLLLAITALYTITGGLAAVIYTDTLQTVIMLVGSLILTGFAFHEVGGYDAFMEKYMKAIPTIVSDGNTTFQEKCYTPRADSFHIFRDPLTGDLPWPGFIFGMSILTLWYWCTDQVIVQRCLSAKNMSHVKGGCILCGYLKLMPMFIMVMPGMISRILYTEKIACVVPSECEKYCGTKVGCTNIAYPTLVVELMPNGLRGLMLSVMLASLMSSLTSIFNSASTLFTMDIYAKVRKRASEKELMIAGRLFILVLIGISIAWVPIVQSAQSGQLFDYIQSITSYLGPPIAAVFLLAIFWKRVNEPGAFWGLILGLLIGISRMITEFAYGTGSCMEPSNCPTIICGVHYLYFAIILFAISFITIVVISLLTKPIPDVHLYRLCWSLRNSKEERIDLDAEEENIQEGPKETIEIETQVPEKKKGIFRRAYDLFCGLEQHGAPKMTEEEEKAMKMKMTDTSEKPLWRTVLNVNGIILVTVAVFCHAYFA
How it was run: as §1

[1] = @ 0.3 μM, CHO-K1 cells stably expressing human SGLT2, 14C-AMG uptake
[2] = CHO-K1 cells stably expressing human SGLT2, 14C-AMG uptake
[3] = @ 0.3 μM, CHO-K1 cells stably expressing human SGLT1, 14C-AMG uptake
[4] = CHO-K1 cells stably expressing human SGLT1, 14C-AMG uptake

Row | Structure (SMILES) | inhibition at 0.3 µM (human SGLT2; [1]) | IC50 (human SGLT2; [2]) | inhibition at 0.3 µM (human SGLT1; [3]) | IC50 (human SGLT1; [4]) | SGLT2 % Inh @ 0.3 μM (human SGLT2; [1]) | SGLT1 % Inh @ 0.3 μM (human SGLT1; [3]) | other results
1 | COc1cc(O)c([C@@H]2O[C@H](CO)C(F)(F)[C@H](O)[C@H]2O)cc1Cc1ccc(C2CC2)cc1 [Compound 140] | 85.5% | 1.9 nM | 81.1% | 72 nM | – | – | –
2 | COc1cc(OC)c([C@@H]2O[C@H](CO)C(F)(F)[C@H](O)[C@H]2O)cc1Cc1ccc(C2CC2)cc1 [Compound 144] | – | – | – | – | 75.0% | 30.6% | –
3 | COc1cc(Cl)c(Cc2ccc(C)cc2)cc1[C@@H]1O[C@H](CO)C(F)(F)[C@H](O)[C@H]1O [Compound 176] | 90.6% | 1.7 nM | 52% | 105 nM | – | – | –
4 | COc1cc(OC)c([C@@H]2O[C@H](CO)C(F)(F)[C@H](O)[C@H]2O)cc1Cc1cc2c(s1)CCN(C(C)=O)C2 [Compound 77] | – | – | – | – | 51.4% | 22.6% | –
5 | COc1cc(OC)c([C@@H]2O[C@H](CO)C(F)(F)[C@H](O)[C@H]2O)cc1Cc1ccc(OC(F)(F)F)cc1 [Compound 121] | – | – | – | – | 63.6% | 20.2% | –
6 | COc1cc(O)c([C@@H]2O[C@H](CO)C(F)(F)[C@H](O)[C@H]2O)cc1Cc1ccc2c(c1)OCCO2 [Compound 54, (2S,3R,4R,6R)-2-[5-(2,3-dihydro-1,4-benzodioxin-6-ylmethyl)-2-hydroxy-4-methoxy-phenyl]-5,5-difluoro-6-(hydroxymethyl)tetrahydropyran-3,4-diol] | 52.8% | 26.3 nM | 41.8% | 895 nM | – | – | –
7 | CCOc1ccc(Cc2cc([C@@H]3O[C@H](CO)C(F)(F)[C@H](O)[C@H]3O)c(O)cc2Cl)cc1 [Compound 162] | 73% | 1.5 nM | 56.5% | 127 nM | – | – | –
8 | COc1cc(Cl)c(Cc2ccc([C@@H]3CCOC3)cc2)cc1[C@@H]1O[C@H](CO)C(F)(F)[C@H](O)[C@H]1O [Compound 50] | – | – | – | – | 84.4% | 20.4% | –
9 | COc1cc(C)c(Cc2ccc(C3CC3)cc2)cc1[C@@H]1O[C@H](CO)C(F)(F)[C@H](O)[C@H]1O [Compound 123] | – | – | – | – | 89.3% | 30.6% | –
10 | COc1cc(OC)c([C@@H]2O[C@H](CO)[C@@](C)(F)[C@H](O)[C@H]2O)cc1Cc1ccc2c(c1)OCCO2 [Compound 9, (2S,3R,4R,5S,6R)-2-[5-(2,3-dihydro-1,4-benzodioxin-6-ylmethyl)-2,4-dimethoxy-phenyl]-5-fluoro-6-(hydroxymethyl)-5-methyl-tetrahydropyran-3,4-diol] | – | – | – | – | – | – | inhibition at 0.3 µM (human SGLT2; 0.3 μM, CHO-K1 cells expressing human SGLT2): 58.7%; inhibition at 0.3 µM (human SGLT1; 0.3 μM, CHO-K1 cells expressing human SGLT1): 25.3%
11 | COc1cc(Cl)c(Cc2cc3ccccc3s2)cc1[C@@H]1O[C@H](CO)C(F)(F)[C@H](O)[C@H]1O [Compound 36, (2S,3R,4R,6R)-2-[5-(benzothiophen-2-ylmethyl)-4-chloro-2-methoxy-phenyl]-5,5-difluoro-6-(hydroxymethyl)tetrahydropyran-3,4-diol] | 48.6% | 4.3 nM | 56.6% | 221 nM | – | – | –
12 | OC[C@H]1O[C@@H](c2cc(Cc3ccc(OC(F)(F)F)cc3)c(Cl)cc2O)[C@H](O)[C@@H](O)C1(F)F [Compound 105] | – | – | – | – | 91.8% | 38.9% | –
13 | Cc1cc(O)c([C@@H]2O[C@H](CO)C(F)(F)[C@H](O)[C@H]2O)cc1Cc1cc2c(s1)CCN(C(=O)c1nccs1)C2 [Compound 80] | – | – | – | – | 82.1% | 31.1% | –
14 | CCOc1cc(C)c(Cc2cc3ccccc3s2)cc1[C@@H]1O[C@H](CO)C(F)(F)[C@H](O)[C@H]1O [Compound 41] | – | – | – | – | 85.4% | 5.8% | –
15 | Cc1cc(O)c([C@@H]2O[C@H](CO)C(F)(F)[C@H](O)[C@H]2O)cc1Cc1ccc(OC(F)(F)F)cc1 [Compound 99, (2S,3R,4R,6R)-5,5-difluoro-2-(2-hydroxy-4-methyl-5-(4-(trifluoromethoxy)benzyl)phenyl)-6-(hydroxymethyl)-tetrahydro-2H-pyran-3,4-diol] | 84.7% | – | 17.3% | – | – | – | –
